Patent publication US20090043378A1, “Biocompatible Polymer System for Extended Drug Release” (priority 2007, published 2009)
Converted amounts (≈) assume the structure as drawn.

Experiments:
[1] = tested on: Monocytic U937 cells; experiment: Monocyte adhesion to polymer coated wells (calcein uptake); format: cell-based
Protocol: Monocytic U937 cells were purchased from ATCC Cell Biology Collection and maintained in culture according to vendor recommendations. U937 cells were seeded at 1×10^5/well onto polymer coated 96 well plates. The cells were stimulated with lipopolysaccharide (LPS) (100 ng/mL) and phorbol-12-myristate-13-acetate (PMA) (100 ng/mL) to induce differentiation and inflammatory activation. […] Adhesion of U937 cells to the polymer scaffold was assessed by calcein uptake as detailed in the following protocol. U937 cells were fluorescently labeled by incubation with calcein (1 mg/mL) for 30 minutes. Calcein is a fluorescent dye hydrolyzed by esterases in viable cells. The percent uptake of calcein is directly proportional to the number of viable cells in the well. The percent of cell adhesion was determined by reading the fluorescent measurements prior to and after gentle PBS washing of the adherent monocytes from the polymer coated plates. […] To calculate the relative percent adhesion, the ratio between the fluorescent measurement prior to and after gentle PBS washing of the adherent monocytes from the polymer coated plates was first determined. […]
In order to evaluate, in vitro, the polymers potential to elicit an inflammatory response, the adhesion of activated monocytes to the components of various polymers were measured, individually and in combination (C10, C19, and C10/C19).

[2] = physchem; format: physicochemical
From the text: The hydrophobicity of zotarolimus enhances its absorption across the cellular membrane leading to inhibition of neointimal proliferation of the target tissues.

[3] = Octanol-water partition coefficient of zotarolimus; format: physicochemical
From the text: In one embodiment, the drug is zotarolimus (Formula 1) ([…], molecular weight=966.5 g/mol), a tetrazole-containing macrocyclic immunosuppressant. […] The mechanism of action of zotarolimus is binding to FKBP12, leading to the formation of a trimeric complex with the protein kinase mTOR (mammalian target of rapamycin) thereby inhibiting its activity. Inhibition of mTOR results in the inhibition of protein phosphorylation events associated with translation of mRNA and cell cycle control.

Compound	monocyte adherence, fold induction over non-stimulated, negative control cells [1] [fold]	solubility ([2]; pH 6.5, aqueous buffer) [µg/mL]	solubility ([2]; pH 7.4, aqueous buffer) [µg/mL]	octanol-water partition coefficient ([3]; pH 6.5)	octanol-water partition coefficient ([3]; pH 7.4)
Poly(butyl methacrylate) [PBMA]	12.6				
CO[C@H]1C[C@@H]2CC[C@@H](C)[C@@](O)(O2)C(=O)C(=O)N2CCCC[C@H]2C(=O)O[C@H]([C@H](C)C[C@@H]2CC[C@H](n3cnnn3)[C@H](OC)C2)CC(=O)[C@H](C)/C=C(\C)[C@@H](O)[C@@H](OC)C(=O)[C@H](C)C[C@H](C)/C=C/C=C/C=C/1C [zotarolimus]		0.47 (≈ 0.486 µM)	0.53 (≈ 0.549 µM)	> 4.5	> 4.5
